Experimental data reported in BindingDB's records for doi:10.1021/jm980035y (Cephalon, 1998).
Square brackets hold non-standard residues; d marks the D form. Peptide text beside a SMILES is read from it. * marks the point of attachment. Bn = c1ccc(C*)cc1; Ms = CS(=O)(=O)*

target: Calpain-2 catalytic subunit (Sus scrofa); test: Inhibitory activity against Calpain-II receptor in porcine kidney

| SMILES | Ki |
| --- | --- |
| CS(=O)(=O)N[C@H](COCc1ccccc1)C(=O)N[C@H](C=O)Cc1ccc(OCc2ccccc2)cc1 [(R)-3-Benzyloxy-N-[(S)-1-(4-benzyloxy-benzyl)-2-oxo-ethyl]-2-methanesulfonylamino-propionamide] (Ms-[dS](Bn)-Tyr(Bn)-aldehyde) | 5 nM |
| CC(OCc1ccccc1)[C@@H](NS(C)(=O)=O)C(=O)N[C@H](C=O)Cc1ccccc1 (stereo partly drawn) [(R)-N-((S)-1-Benzyl-2-oxo-ethyl)-3-benzyloxy-2-methanesulfonylamino-butyramide] | 7 nM |
| CS(=O)(=O)N[C@H](COCc1ccccc1)C(=O)N[C@H](C=O)CCCCNS(=O)(=O)c1ccccc1 [(R)-N-((S)-5-Benzenesulfonylamino-1-formyl-pentyl)-3-benzyloxy-2-methanesulfonylamino-propionamide] | 17 nM |
| CS(=O)(=O)N[C@H](CSCc1ccccc1)C(=O)N[C@H](C=O)Cc1ccccc1 [(S)-N-((S)-1-Benzyl-2-oxo-ethyl)-3-benzylsulfanyl-2-methanesulfonylamino-propionamide] (Ms-[dC](Bn)-Phe-aldehyde) | 7 nM |
